Sander's compilation of Henry's law constants (doi:10.1021/je700418a)

experiment: Henry solubility constant Hcp at 298.15 K (mol/(m3 Pa)); details: reference: Helburn et al. (2008)

Structure (SMILES) | Henry solubility constant Hcp
CCCCOC(C)=O [butyl ethanoate] | 0.021
ClCCl [dichloromethane] | 0.0032
CCOCC [diethyl ether] | 0.095
Cc1ccccc1 [methylbenzene] | 0.0014
ClC=C(Cl)Cl [trichloroethene] | 0.00094

Continued, values first:

Henry solubility constant Hcp | Structure (SMILES)
0.039 | CC(C)C12CCC(C)(CC1)O2 [1-methyl-4-(1-methylethyl)-7-oxabicyclo[2.2.1]heptane]
0.68 | CC(C)O [2-propanol]
0.029 | CC(C)=CCCC(C)=CC#N [3,7-dimethyl-2,6-octadienenitrile]
0.00026 | C=C(C)[C@H]1CC=C(C)CC1 [(R)-1-methyl-4-(1-methylethenyl)-cyclohexene]
8e-05 | C1CCCCC1 [cyclohexane]
0.0043 | CCCCCCCCCC=O [decanal]
